PubChem BioAssay (NCI)
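Values below derive from 48-hour exposures of cells grown in 96-well plates, with endpoints linearly interpolated between the two concentrations bracketing the appropriate inhibition level. GI50: concentration for 50% inhibition of growth. TGI: total growth inhibition.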

What was measured:
Assay in all cases: NCI-60 cell line screen, 48 h
[1] = test system: 786-0 renal
[2] = test system: U251 CNS
[3] = test system: SK-OV-3 ovarian
[4] = test system: HT29 colon
[5] = test system: MDA-MB-435
[6] = test system: RXF 393 renal
[7] = test system: SW-620 colon
[8] = test system: HOP-62 NSCLC
[9] = test system: PC-3 prostate
[10] = test system: HL-60(TB) leukemia

SMILES | GI50 [1] | TGI [1] | GI50 [2] | TGI [2] | GI50 [3] | TGI [3] | GI50 [4] | TGI [4] | GI50 [5] | TGI [5] | GI50 [6] | TGI [6] | GI50 [7] | TGI [7] | GI50 [8] | TGI [8] | GI50 [9] | TGI [9] | GI50 [10] | TGI [10]
C[n+]1cc2cc3c(cc2c2ccccc21)OCO3 | 12.4 µM | > 100 µM | 1.33 µM | 11.3 µM | 7.96 µM | > 100 µM | 3.77 µM | 23 µM | 5.32 µM | 21 µM | 16.4 µM | > 100 µM | 4.52 µM | > 100 µM | 6.62 µM | 43.2 µM | 3.12 µM | 26.4 µM | – | –
COc1ccc(C2CC(c3cccc(OC)c3)=NN2C(=O)c2cc(OC)c(OC)c(OC)c2)cc1 (stereo unspecified) | 2.25 µM | > 100 µM | 3.04 µM | > 100 µM | 3.66 µM | > 100 µM | 0.507 µM | > 100 µM | 0.307 µM | 1.71 µM | – | – | 0.881 µM | > 100 µM | > 23.1 µM | > 100 µM | 0.882 µM | > 100 µM | 0.609 µM | –
C=CCN(N=O)C(=O)N(CCCCC(NC(C)=O)C(=O)NCc1ccccc1)Cc1ccccc1 (stereo unspecified) | – | > 100 µM | – | > 100 µM | – | > 100 µM | – | 36.8 µM | – | – | – | 93.1 µM | – | > 100 µM | – | > 100 µM | – | – | – | 43.5 µM
OCC#CCCCCOCC#Cc1ccccc1C#CCOCCCCC#CCO | 36.9 µM | > 100 µM | 17.2 µM | 35.2 µM | – | – | 21.2 µM | 63.6 µM | 20 µM | 45.9 µM | 31.8 µM | 96.9 µM | 21.9 µM | 50.9 µM | – | – | 40.6 µM | 98.4 µM | 36.2 µM | > 100 µM
COC(=O)[C@@H]1[C@H](O)[C@H](C)[C@H](O)[C@H](C)/C=C\C=C(C)C(=O)Nc2c(C)c(OC(C)=O)c3c(c2O)C(=O)C(C)=C2OCOC(=C23)C(C)=C[C@@](C)(O)[C@H](O)[C@@H](C)[C@H]1OC(C)=O | – | > 100 µM | – | > 100 µM | – | – | – | > 100 µM | – | – | – | > 100 µM | – | > 100 µM | – | > 100 µM | – | > 100 µM | – | 34 µM
O=C(Nc1cc(C(F)(F)F)cc(C(F)(F)F)c1)Nc1ccc(OCc2nnc(-c3ccc(Cl)cc3)o2)c(F)c1 | 2 µM | 4.68 µM | 1.49 µM | 3.24 µM | 2.69 µM | 9.51 µM | 2.7 µM | 10.3 µM | 2.6 µM | 9.78 µM | – | – | 2.66 µM | 12.3 µM | 2.11 µM | 6.12 µM | 0.668 µM | 11.2 µM | 2.85 µM | 8.21 µM
O=C(Nc1nc(-c2ccccc2)cs1)c1cc(O)c(O)c(O)c1 | 3.38 µM | 10.6 µM | 2.88 µM | 21 µM | 12 µM | 41.9 µM | 5.95 µM | 44.1 µM | 5.59 µM | 56.2 µM | 3.55 µM | 19.7 µM | 2.66 µM | 37.4 µM | 5.73 µM | 30.6 µM | – | – | 3.05 µM | 10.1 µM
CSC(=NC#N)S/C=C/C(=O)c1cccc2ccccc12 | 16.2 µM | 43.5 µM | 31.3 µM | > 100 µM | 61.1 µM | > 100 µM | 53.9 µM | > 100 µM | 24.5 µM | 85.5 µM | 32.3 µM | > 100 µM | 36.9 µM | > 100 µM | 34 µM | 61.2 µM | 31.3 µM | 99 µM | – | –
CN(C)CCC(=O)N1CCc2c([nH]c3ccccc23)C1c1cccnc1 (stereo unspecified) | – | > 100 µM | – | > 100 µM | – | > 100 µM | – | > 100 µM | – | – | – | 59.7 µM | – | > 100 µM | – | > 100 µM | – | – | – | > 100 µM
OCCSCC/C(=N\N=C(/CCSCCO)c1ccccc1)c1ccccc1 | – | > 100 µM | – | > 100 µM | – | > 100 µM | – | > 100 µM | – | – | – | 99.7 µM | – | > 100 µM | – | > 100 µM | – | – | – | > 100 µM
Cc1ccc(S(=O)(=O)N[C@@H](Cc2ccccc2)C(=O)CCl)cc1 | 10.6 µM | 27 µM | 9.3 µM | 24.5 µM | 47.5 µM | > 100 µM | 24 µM | > 100 µM | – | 30.7 µM | 14.6 µM | 37.2 µM | 10.2 µM | 59.4 µM | – | 39.8 µM | 5.54 µM | 22.6 µM | – | –
Cc1cccc2cc3cccc(C(=O)NCCN(C)C)c3nc12 | – | 11.5 µM | – | 2.15 µM | – | 0.619 µM | – | 3.94 µM | – | – | – | 0.931 µM | – | 10.5 µM | – | 0.502 µM | – | – | – | 1.15 µM
